Read-outs that look alike come from different tables or passages of the source.
Legend:
[1] = tested on: human colorectal cancer cell line, COLO-320DM; assay: Cell proliferation inhibitory activity test (Celltiter-Glo Luminescent Cell Viability Assay); format: cell-based; conditions: COLO-320DM cells, 96 hours, class symbols, read-out: COLO-320 DM (cell proliferation inhibitory activity, GI50 value)
In short: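 Cells grown in RPMI-1640 with 10% FBS and 2 mM glutamine, seeded overnight, then exposed to compound (1% DMSO final) for 96 h at 37° C., 5% CO2. Viability read by ATP luminescence; GI50 is the concentration reducing cell growth to 50% of DMSO control.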

tankyrase 1 (TNKS 1) = target: T1, tankyrase 1 (TNKS 1) (Homo sapiens, UniProt O95271); assay: Tankyrase inhibitory activity test (ELISA, self-polyADP ribosylation), tankyrase 1; format: biochemical
T1 construct: 1,024-1,327aa; made in house; host or cells: cell-free protein synthesis system
In short: (§1)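 Flag-tagged TNKS1 (1,024-1,327aa, SAM+PARP) and TNKS2 (613-1,116aa, ANK5+SAM+PARP) were made cell-free and captured overnight at 4 °C on anti-FLAG M2 plates. After 10 min compound preincubation in Tris pH 8.0/MgCl2/DTT buffer, NAD (225 μM) plus biotin-NAD (25 μM) solution was added for 45 min at 30 °C. Auto-PARylation was read by streptavidin-HRP chemiluminescence, giving IC50 from residual activity.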

tankyrase 2 (TNKS 2) = target: T2, tankyrase 2 (TNKS 2) (Homo sapiens, UniProt Q9H2K2); assay: Tankyrase inhibitory activity test (ELISA, self-polyADP ribosylation), tankyrase 2; format: biochemical
T2 construct: 613-1, 116aa; made in house; host or cells: cell-free protein synthesis system
In short: as §1

[2] = ELISA, self-polyADP ribosylation, class symbols, read-out: TNKS1 (inhibitory activity against tankyrase 1, IC50 value)
[3] = ELISA, self-polyADP ribosylation, class symbols, read-out: TNKS2 (inhibitory activity against tankyrase 2, IC50 value)

T2 sequence (Q9H2K2 613-1166): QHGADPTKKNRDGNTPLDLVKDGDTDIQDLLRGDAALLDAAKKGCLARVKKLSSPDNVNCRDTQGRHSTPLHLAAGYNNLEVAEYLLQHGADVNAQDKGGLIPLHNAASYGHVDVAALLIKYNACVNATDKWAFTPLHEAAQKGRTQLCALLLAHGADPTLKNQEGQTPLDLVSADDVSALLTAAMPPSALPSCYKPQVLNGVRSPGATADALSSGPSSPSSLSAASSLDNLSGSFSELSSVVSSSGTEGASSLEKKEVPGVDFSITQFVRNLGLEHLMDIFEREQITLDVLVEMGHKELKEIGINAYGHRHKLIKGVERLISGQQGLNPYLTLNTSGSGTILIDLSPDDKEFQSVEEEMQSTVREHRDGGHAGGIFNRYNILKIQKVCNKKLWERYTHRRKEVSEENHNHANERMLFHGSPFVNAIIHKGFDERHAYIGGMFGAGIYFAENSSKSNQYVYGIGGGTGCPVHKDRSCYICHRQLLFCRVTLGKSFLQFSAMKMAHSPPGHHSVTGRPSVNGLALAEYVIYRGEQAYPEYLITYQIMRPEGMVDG
T1 sequence (O95271 1024-1327): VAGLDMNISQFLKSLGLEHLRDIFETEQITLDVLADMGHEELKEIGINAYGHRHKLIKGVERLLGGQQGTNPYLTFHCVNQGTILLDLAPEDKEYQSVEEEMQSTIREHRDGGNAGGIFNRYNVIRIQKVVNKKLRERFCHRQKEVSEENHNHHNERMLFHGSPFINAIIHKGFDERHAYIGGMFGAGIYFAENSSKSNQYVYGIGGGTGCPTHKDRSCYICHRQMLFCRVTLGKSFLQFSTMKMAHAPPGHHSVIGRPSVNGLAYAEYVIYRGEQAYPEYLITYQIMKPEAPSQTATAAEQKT

SMILES | GI50 [1] | IC50 (tankyrase 1 (TNKS 1); [2]) | IC50 (tankyrase 2 (TNKS 2); [3]) | IC50 (tankyrase 1 (TNKS 1)) | IC50 (tankyrase 2 (TNKS 2))
CN1CCCc2c1nc(N1CCC3(CC1)C(=O)N(C)c1cc(OCC(=O)NS(C)(=O)=O)cc(F)c13)[nH]c2=O [Example 427, 2-{[4-fluoro-1-methyl-1′-(8-methyl-4-oxo-3,4,5,6,7,8-hexahydro-pyrido[2,3-d]pyrimi-din-2-yl)-2-oxospiro [indoline-3,4′-piperidin]-6-yl]oxy}-N-(methyl-sulfonyl)acetamide] | 600 to 1000 nM | < 20 nM | < 20 nM |  | 
CN1CCCc2c1nc(N1CCC3(CC1)C(=O)N(C)c1cc(OCCNS(=O)(=O)N(C)C)cc(F)c13)[nH]c2=O [Example 428, 6-[2-(N,N-dimethyl-sulfamoyl)amino-ethoxy]-4-fluoro-1-methyl-1′-(8-methyl-4-oxo-3,4,5,6,7,8-hexahydro-pyrido[2,3-d]pyrimi-din-2-yl)spiro [indoline-3,4′-piperidin]-2(1 H)-one] | 100 to 600 nM | < 20 nM | < 20 nM |  | 
CN1CCCc2c1nc(N1CCC3(CC1)C(=O)N(CCO)c1cc(OCC#N)cc(F)c13)[nH]c2=O [Example 429, {[4-fluoro-1-(2-hydroxy-ethyl)-1′-(8-methyl-4-oxo-3,4,5,6,7,8-hexahydro-pyrido[2,3-d]pyrimidin-2-yl)-2-oxospiro[indoline-3,4′-piperidin]-6-yl]oxy} acetonitrile] | 100 to 600 nM | < 20 nM | < 20 nM |  | 
CN1CCCc2c1nc(N1CCC3(CC1)C(=O)N(CC(=N)N)c1cc(F)cc(F)c13)[nH]c2=O [Example 430, [4,6-difluoro-1′-(8-methyl-4-oxo-3,4,5,6,7,8-hexahydropyrido[2,3-d]pyrimidin-2-yl)-2-oxospiro[indoline-3,4′-piperidine]-1(2H)-yl]ethanimidamide] | 600 to 1000 nM | < 20 nM | < 20 nM |  | 
CN1CCCc2c1nc(N1CCC3(CC1)C(=O)N(C)c1cc(C(=O)O)cc(F)c13)[nH]c2=O [Example 431, 4-fluoro-1-methyl-1′-(8-methyl-4-oxo-3,4,5,6,7,8-hexahydro-pyrido[2,3-d]primi-din-2-yl)-2-oxospiro[indoline-3,4′-piperidine]-6-carboxylic acid] | 600 to 1000 nM | < 20 nM | < 20 nM |  | 
CN1CCCc2c1nc(N1CCC3(CC1)C(=O)N(C)c1cc(OCCNS(C)(=O)=O)cc(F)c13)[nH]c2=O [Example 432, N-(2-{[4-fluoro-1-methyl-1′-(8-methyl-4-oxo-3,4,5,6,7,8-hexahy-dropyrido[2,3-d]py-rimidin-2-yl)-2-oxospiro [indoline-3,4′-piperi-din]-6-yl]oxy}ethyl) methanesulfonamide] | 100 to 600 nM | 20 to 200 nM | 20 to 200 nM |  | 
CN1CCCc2c1nc(N1CCC3(CC1)OC(=O)c1cc(N4CCN(C(C)(C)C)CC4)cc(F)c13)[nH]c2=O [Example 434, 6-(4-tert-butylpipera-zin-1-yl)-4-fluoro-1′-(4-hydroxy-8-methyl-6,7-dihydro-5H-pyrido [2,3-d]pyrimidin-2-yl) spiro[2,3-benzofuran-3,4′-piperidine]-1-one] | 600 to 1000 nM | < 20 nM | < 20 nM |  | 
N#CCOc1cc(F)c2c(c1)N(CC(F)(F)F)C(=O)C21CCN(c2nc3c(c(=O)[nH]2)CCCN3)CC1 [Example 435, 2-[4-fluoro-2-oxo-1′-(4-oxo-3,4,5,6,7-hex-ahydropyrido[2,3-d]pyrimidin-2-yl)-1-(2,2,2-trifluoroethyl)spiro [indole-3,4′-piperidine]-6-yl]oxyacetonitrile] | 100 to 600 nM | < 20 nM | < 20 nM |  | 
CN1CCCc2c1nc(N1CCC3(CC1)C(=O)N(C)c1c(OCCNC(C)(C)C)ccc(F)c13)[nH]c2=O [Example 437, 7-[2-(tert-butylamino)ethoxy]-4-fluoro-1′-(4-hydroxy-8-methyl-6,7-dihydro-5H-pyrido [2,3-d]pyrimidin-2-yl)-1-methylspiro[indole-3,4′-piperidine]-2-one] | 100 to 600 nM | 20 to 200 nM | 20 to 200 nM |  | 
CN1C(=O)C2(CCN(c3nc4c(c(=O)[nH]3)CCCN4)CC2)c2c(Cl)ccc(OC3CCOC3)c21 (stereo not drawn) [Example 438, 4-chloro-1′-(4-oxo-3,4,5,6,7,8-hexahydro-pyrido[2,3-d]pyrimidin-2-yl)-1-methyl-7-(oxo-lan-3-yloxy)spiro [indole-3,4′-piperidine]-2-one] | 600 to 1000 nM | < 20 nM | < 20 nM |  | 
CN1CCCc2c1nc(N1CCC3(CC1)OC(=O)c1cc(N4CCN(CC(C)(C)O)CC4)cc(F)c13)[nH]c2=O [Example 439, 4-fluoro-1′-(4-hydroxy-8-methyl-6,7-dihydro-5H-pyrido[2,3-d]pyrimidin-2-yl)-6-[4-(2-hydroxy-2-methyl-propyl)piperazin-1-yl] spiro[2,3-benzofuran-3,4′-piperidine]-1-one] | 100 to 600 nM | < 20 nM | < 20 nM |  | 
CN1CCCc2c1nc(N1CCC3(CC1)OC(=O)c1cc(N4CCN(CCO)CC4)cc(F)c13)[nH]c2=O [Example 440, 4-fluoro-6-[4-(2-hydroxyethyl)piper-azin-1-yl]-1′-(4-hydroxy-8-methyl-6,7-dihydro-5H-pyrido[2,3-d]pyrimi-din-2-yl)spiro[2-benzofuran-3,4′-piperidine]-1-one] | 100 to 600 nM | < 20 nM | < 20 nM |  | 
COc1ccc(Cl)c2c1N(CCN1CCN(C(C)=O)CC1)C(=O)C21CCN(c2nc3c(c(=O)[nH]2)CCCN3C)CC1 [Example 441, 1-[2-(4-acetylpiper-azin-1-yl)ethyl]-4-chloro-1′-(4-hy-droxy-8-methyl-6,7-dihydro-5H-py-rido[2,3-d]pyrimi-din-2-yl)-7-methoxy-spiro[indole-3,4′-piperidine]-2-one] | 100 to 600 nM | 20 to 200 nM | < 20 nM |  | 
CN1CCCc2c1nc(N1CCC3(CC1)C(=O)N(C)c1cc(OCP(=O)(O)O)cc(F)c13)[nH]c2=O [Example 442, ({[4-fluoro-1-methyl-1′-(8-methyl-4-oxo-3,4,5,6,7,8-hexahydropyrido[2,3-d]pyrimidin-2-yl)-2-oxospiro[indoline-3,4′-piperidine]-6-yl]oxy}methyl) phosphonic Acid] | 600 to 1000 nM |  |  | 20 to 200 nM | 20 to 200 nM
COc1ccc(Cl)c2c1N(CC(F)(F)F)C(=O)C21CCN(c2nc3c(c(=O)[nH]2)CCCN3)CC1 [Example 443, 4-chloro-1′-(4-hy-droxy-3,5,6,7,8-tetra-hydropyrido[2,3-d]pyrimidin-2-yl)-7-methoxy-1-(2,2,2-trifluoroeth-yl)spiro[indole-3,4′-piperidine]-2-one] | 600 to 1000 nM | < 20 nM | < 20 nM |  | 
CN1CCN(c2ccc(-c3cc(F)c4c(c3)C(=O)OC43CCN(c4nc5c(c(=O)[nH]4)CCCN5C)CC3)cc2)CC1 [Example 444, 4-fluoro-1′-(4-hy-droxy-8-methyl-6,7-dihydro-5H-pyrido [2,3-d]pyrimidin-2-yl)-6-[4-(4-meth-ylpiperazin-1-yl)phenyl]spiro[2-benzofuran-3,4′-piperidine]-1-one] | 100 to 600 nM | 20 to 200 nM | 20 to 200 nM |  | 
COc1ccc(Cl)c2c1N(CCC(=O)N1CCn3c(C(F)(F)F)cnc3C1)C(=O)C21CCN(c2nc3c(c(=O)[nH]2)CCCN3C)CC1 [Example 445, 4-chloro-1′-(4-hy-droxy-8-methyl-6,7-dihdyro-5H-py-rido[2,3-d]pyrimi-din-2-yl)-7-meth-oxy-1-[3-oxo-3-[3-(trifluoromethyl)-6,8-dihydro-5H-imidazo[1,2-a]py-razin-7-yl]propyl] spiro[indole-3,4′-piperidine]-2-one] | 100 to 600 nM | < 20 nM | < 20 nM |  | 
COc1ccc(Cl)c2c1N(CC(C)(C)O)C(=O)C21CCN(c2nc3c(c(=O)[nH]2)CCCN3C)CC1 [Example 446, 4-chloro-1′-(4-hy-droxy-8-methyl-6,7-dihydro-5H-py-rido[2,3-d]pyrimi-din-2-yl)-1-(2-hy-droxy-2-methyl-propyl)-7-methoxy-spiro[indole-3,4′-piperidine]-2-one] | < 100 nM | < 20 nM | < 20 nM |  | 
CN1CCCc2c1nc(N1CCC3(CC1)C(=O)N(CC(C)(C)O)c1cccc(F)c13)[nH]c2=O [Example 447, 4-fluoro-1′-(4-hy-droxy-8-methyl-6,7-dihydro-5H-py-rido[2,3-d]pyrimidin-2-yl)-1-(2-hydroxy-2-methylpro-pyl)spiro[indole-3,4′-piperidine]-2-one] | < 100 nM | < 20 nM | < 20 nM |  | 
COc1ccc(Cl)c2c1N(CC(C)(C)O)C(=O)C21CCN(c2nc3c(c(=O)[nH]2)CCCN3)CC1 [Example 448] | 100 to 600 nM | < 20 nM | < 20 nM |  | 
CN(C)c1ccc(-c2cc(F)c3c(c2)C(=O)OC32CCN(c3nc4c(c(=O)[nH]3)CCCN4C)CC2)cc1 [Example 449, 6-[4-(dimethylami-no)phenyl]-4-fluoro-1′-(4-hydroxy-8-methyl-6,7-di-hydro-5H-pyrido[2,3-d]pyrimidin-2-yl)spiro[2-benzo-furan-3,4′-piperidine]-1-one] | 100 to 600 nM | 20 to 200 nM | 20 to 200 nM |  | 
